From patent publication US8119681B2, “2-[1-phenyl-5-hydroxy or methoxy-4alpha-methyl-hexahydrocyclopenta [ƒ]indazole-5-YL]ethyl phenyl derivatives as glucocorticoid receptor ligands” (Merck Sharp & Dohme Corp., priority 2006, dated 2012)

Columns and labels:
Format in all cases: cell-based
human GR [1] = target: T1, human GR (Homo sapiens, UniProt P04150); test: Trans-Activation Modulation of Glucocorticoid Receptor (GRAMMER), MMTV-LUC reporter gene; design: endogenous in cells; conditions: Table 1, Emax relative to 300 nM dexamethasone
T1 sequence (P04150 1-777): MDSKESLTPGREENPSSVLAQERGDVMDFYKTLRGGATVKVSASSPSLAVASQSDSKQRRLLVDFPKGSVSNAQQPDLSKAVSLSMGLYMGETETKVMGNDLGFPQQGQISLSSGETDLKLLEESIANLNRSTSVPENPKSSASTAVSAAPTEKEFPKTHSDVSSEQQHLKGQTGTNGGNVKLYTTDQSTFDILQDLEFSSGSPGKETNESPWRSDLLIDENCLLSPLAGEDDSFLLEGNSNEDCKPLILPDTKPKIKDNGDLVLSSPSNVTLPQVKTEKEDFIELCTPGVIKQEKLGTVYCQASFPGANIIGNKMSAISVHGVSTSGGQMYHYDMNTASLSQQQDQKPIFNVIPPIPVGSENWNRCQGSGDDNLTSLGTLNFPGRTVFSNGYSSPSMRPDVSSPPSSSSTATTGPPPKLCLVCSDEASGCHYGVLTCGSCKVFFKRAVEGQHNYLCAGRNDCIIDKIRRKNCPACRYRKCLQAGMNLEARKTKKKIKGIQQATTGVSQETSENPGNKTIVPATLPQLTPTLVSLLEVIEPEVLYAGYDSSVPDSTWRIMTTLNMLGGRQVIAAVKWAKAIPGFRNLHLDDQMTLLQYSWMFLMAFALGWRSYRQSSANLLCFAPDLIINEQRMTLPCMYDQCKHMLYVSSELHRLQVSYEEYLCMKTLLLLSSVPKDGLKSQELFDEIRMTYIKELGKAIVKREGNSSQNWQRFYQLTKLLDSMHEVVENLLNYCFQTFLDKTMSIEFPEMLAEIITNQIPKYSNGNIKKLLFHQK

human GR [2] = target: T1, human GR; test: Transrepression Assay (GITAR), TNFα-β-lactamase reporter gene in U937 cells; design: U937 cells contain an endogenous glucocorticoid receptor (GR); endogenous in cells; host or cells: U937 cells stably transfected with the TNF-α promoter/β-lactamase reporter only; conditions: for EC50: IP = inflection point, read-out: Transrepression U937 Cells GITAR IP; for GITAR > GRAMM % SEP: separation of GITAR Emax over GRAMMER Emax; for Emax: U-937
Outline: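 Reporter readout used CCF2-AM loading for 70–90 min at room temperature after overnight (~18 h, 37 °C) PMA (5 ng/ml final) and LPS (100 ng/ml final) stimulation of compound-treated (30–45 min) TNFα-β-lactamase U937 cells expressing native GR. Activity was normalised to 100 nM dexamethasone repression.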

human GR [3] = target: T1, human GR; test: Trans-Activation Modulation of Glucocorticoid Receptor (GRAMMER), MMTV-LUC reporter gene; design: endogenous in cells; conditions: for EC50: Table 1, A549 cells, IP = inflection point, read-out: Transactivation A549 Cells GRAMMER IP; for Emax: A549, read-out: Transactivation A549 Cells GRAMMER Emax (%)
[4] = 100 nM dexamethasone = 100% activity, read-out: maximal activity in the transrepression assay
[5] = Table 1, U937 cells, activity repressed by 100 nM dexamethasone = 100%, read-out: Transrepression U937 Cells GITAR Emax (%)

EC50 (human GR [2]; Table 1, U937 cells) [nM] | GITAR > GRAMM % SEP (human GR [2]; Table 1) [%] | EC50 (human GR [3]) [nM] | Emax (human GR [2]; [4]) [%] | Emax (human GR [2]; [5]) [%] | Emax (human GR [3]) [%] | Compound | Transactivation A549 Cells GRAMMER Emax (%) (human GR [1]) | Transrepression U937 Cells GITAR Emax (%) (human GR [2]; Table 1, U937 cells, activity repressed by 100 nM dexamethasone = 100%)
77 | 32 | 83 | 5 to 100 | 68 | 36 | CCC(O)(C(N)=O)c1ccccc1CC[C@]1(O)CCC2=Cc3c(cnn3-c3ccc(F)cc3)C[C@@]21C (stereo partly drawn) [Example 199, 2-(2-{2-[(4αS,5R)-1-(4-fluorophenyl)-5-hydroxy-4α-methyl-1,4,4α,5,6,7-hexahydrocyclopenta[f]indazol-5-yl]ethyl}phenyl)-2-hydroxybutanamide] | – | –
40 | 38 | 47 | 5 to 100 | 78 | 40 | CC(C)C(O)(C(N)=O)c1ccccc1CC[C@]1(O)CCC2=Cc3c(cnn3-c3ccc(F)cc3)C[C@@]21C (stereo partly drawn) [Example 201, 2-(2-{2-[(4αS,5R)-1-(4-fluorophenyl)-5-hydroxy-4α-methyl-1,4,4α,5,6,7-hexahydrocyclopenta[f]indazol-5-yl]ethyl}phenyl)-2-hydroxy-3-methylbutanamide] | – | –

Compound | EC50 (human GR [2]; Table 1, U937 cells) [nM] | GITAR > GRAMM % SEP (human GR [2]; Table 1) [%] | EC50 (human GR [3]) [nM] | Emax (human GR [2]; [4]) [%] | Emax (human GR [2]; [5]) [%] | Emax (human GR [3]) [%] | Transactivation A549 Cells GRAMMER Emax (%) (human GR [1]) | Transrepression U937 Cells GITAR Emax (%) (human GR [2]; Table 1, U937 cells, activity repressed by 100 nM dexamethasone = 100%)
C[C@]12Cc3cnn(-c4ccc(F)cc4)c3C=C1CC[C@@]2(O)/C=C/c1ccccc1S(N)(=O)=O [Example 160, 2-{(E)-2-[(4αS,5R)-1-(4-fluorophenyl)-5-hydroxy-4α-methyl-1,4,4α,5,6,7-hexahydrocyclopenta[f]indazol-5-yl]vinyl}benzenesulfonamide] | 274 | 42 | 118 | – | – | – | 30 | 72
